According to US10092565B2, “Treatment of proliferative disorders with a chemiluminescent agent” (Semorex Technologies Ltd., priority 2011, dated 2018):
Read-outs that look alike come from different tables or passages of the source.

Assays:
[1] = system: CHRF line acute myeloid leukemia (AML) cells; experiment: XTT growth inhibition of CHRF AML cells, 72 hours; type: cell-based; details: for Growth inhibition (%): 80 µM
Protocol: Cells were grown in full culture medium for 24 hours. The medium was then removed and cells were washed with PBS. The PBS was then replaced by fresh medium containing different concentrations of SEM-011 in a range of 50 to 800 μM, or with SEM-011-free medium as a control. […] Growth inhibition was evaluated by calculating the percent decrease in absorbance in SEM-011-treated test cultures as compared to control cultures.

PC-3 cells = experiment: Alamar Blue growth inhibition of PC-3 cells; type: cell-based, human; details: for IC50: read-out: Est IC50
Protocol: In additional sets of experiments. […] At the end of the culture period, the level of mitochondrial metabolism was measured (using Alamar Blue assay) and the activity of the chemiluminescent agents was determined by percents of growth inhibition; the inhibition of growth in treated cell cultures compared to non-treated, control cells.

[2] = system: PC-3 prostate cancer cells; experiment: PC-3 prostate cancer tumors in nu/nu mice, tumor volume / Progression Index; type: in vivo
Protocol: Tumor volumes were quantified (in cm^3) at the indicated times by using the formula: tumor volume=(width^2×length)/2. Tumor volume index or Progression Index refers to the ratio of a tumor volume at an indicated time to the first volume measured for that tumor.
Nu/nu nude mice were inoculated on their right flank with 2×10^6 PC-3 prostate cancer cells in a Matrigel mixture. Following inoculation, two mice were treated with escalating concentrations of L-012 (also referred to herein as “SEM-007”) by intraperitoneal injections twice per week, according to the following schedule:
As a control, two mice were inoculated with PC-3 cells without receiving L-012.
The volume of the tumor was then monitored.
The tumor volume was measured periodically beginning on day 25 post-inoculation, and the weight loss over the course of the experiment was also measured.
Each treatment group and each control group consisted of four (and sometimes five) mice.
In another set of experiments, Nu/nu male mice, 1.5-month old, were injected subcutaneously on the right flank with PC-3 cells (2.0×10^6 cells/mouse). On days 4, 8, 12, 15, 19, 36, 42 and […] (after the beginning of treatment), mice were treated with either vehicle (PBS) or 43 mg/Kg L012 by intraperitoneal injections. From the beginning of treatment, tumor dimensions were measured and tumor volume calculated. Progression Index was calculated as the ratio of tumor volume growth at a particular time point to the tumor volume at the initiation of treatment.
(§1) Control animals received an intraperitoneal injection of PBS.
The tumor volume was measured periodically beginning on day 35 post-inoculation.
Nu/nu male mice, 1.5-month old, were injected subcutaneously on the right flank with PC-3 cells (2.0×10^6 cells/mouse). On days 4, 8, 12, 15, 19, 36, 42 and 46 (after beginning of treatment), mice were treated with either vehicle (PBS) or 43 mg/Kg SEM 009, by intravenous injection, as indicated.
From the beginning of treatment, tumor dimensions were measured and tumor volume calculated. Progression Index was calculated as the ratio of tumor volume rowth at a particular time point to the tumor volume at the initiation of treatment.

[3] = system: OvCar-3 ovarian cancer cells, SKOV-3 ovarian cancer cells, HepG2 liver cancer cells, PC-3 prostate cancer cells, CHRF acute myeloid leukemia cells; experiment: XTT growth inhibition IC50 in a panel of cancer cell lines, 72 hours; type: cell-based; details: all tested cell lines, FIG. 7
Protocol: (§2) The compound SEM-011 was tested for anti-cancer activity, using the PC-3 prostate cancer cell line. Cells were grown in full culture medium for 24 hours. The medium was then removed and cells were washed with PBS. The PBS was then replaced by fresh medium containing different concentrations of SEM-011 in a range of 50 to 800 μM, or with SEM-011-free medium as a control. Cells were then cultured for 24 hours, after which time the level of cellular metabolism in the cultures was measured using a standard XTT (2,3-bis-(2-methoxy-4-nitro-5-sulfophenyl)-2H-tetrazolium-5-carboxanilide) assay. Growth inhibition was evaluated by calculating the percent decrease in absorbance in SEM-011-treated test cultures as compared to control cultures.
(§3) The compounds SEM-007 (also referred to herein and in the art as “L-012”) and SEM-009 (also referred to in the art as “L-002”) were tested for anti-cancer activity using a variety of cell lines. The cell lines used were OvCar-3 ovarian cancer cells, SKOV-3 ovarian cancer cells, HepG2 liver cancer cells, PC-3 prostate cancer cells, and CHRF acute myeloid leukemia cells.

[4] = as above; type: cell-based; details: span over all tested cell lines, FIG. 7, read-out: IC50 (concentration which resulted in 50% growth inhibition)
Protocol: as §2, §3

[5] = system: PC-3 prostate cancer cell line; experiment: XTT growth inhibition of PC-3 cells, 24 hours; type: cell-based, human
Protocol: as §2

[6] = for effect on decrease in body weight following inoculation with tumor cells: FIG. 5
Source text: FIG. 5 is a bar graph showing the change in body weight of nu/nu mice 28 and 77 days after inoculation with PC-3 cells, following intraperitoneal injection of L-012 once per week (L012 l/w) or twice per week (L012 2/w) during days 35-56 after inoculation, and without L-012 administration (Control);
Nu/nu mice were inoculated with PC-3 cells as described in Example 1, and on day 35 post-inoculation, the animals were divided into three groups.
as §1
A second group received one weekly injection of 41.3 mg/kg L-012 for 3 weeks, i.e., on days 35, 42 and 49 post-inoculation. A third group received two weekly injections of 41.3 mg/kg L-012 for 3 weeks, i.e., on days 35, 36, 42, 47, 49 and 56.

[7] = Homo sapiens, PC-3, 200 uM, 24 hrs
[8] = Homo sapiens, PC-3, 200 uM, 48 hrs
[9] = Homo sapiens, PC-3, 200 uM, 72 hrs
[10] = Homo sapiens, PC-3, 400 uM, 24 hrs
[11] = Homo sapiens, PC-3, 400 uM, 48 hrs
[12] = Homo sapiens, PC-3, 400 uM, 72 hrs
[13] = Homo sapiens, PC-3, 800 uM, 24 hrs
[14] = Homo sapiens, PC-3, 800 uM, 48 hrs
[15] = Homo sapiens, PC-3, 800 uM, 72 hrs

C[n+]1c2ccccc2c(-c2c3ccccc3[n+](C)c3ccccc23)c2ccccc21 [Lucigenin]
Growth inhibition (%) [1]: 33%

Nc1cccc2c(=O)[nH][nH]c(=O)c12 [Luminol]
inhibition at 80 µM ([1]; 72 h, read-out: Growth inhibition (%)): 40%

O=c1[nH][nH]c(=O)c2c(O)c(-c3ccc(Cl)cc3)ncc12 [SEM-014, 8-hydroxy-7-(4-chlorophenyl)-2,3-dihydropyrido[4,3-d]pyridazine-1,4-dione]
inhibition at 200 µM (PC-3 cells; [7]): 51.6%
inhibition at 200 µM (PC-3 cells; [8]): 71.9%
inhibition at 200 µM (PC-3 cells; [9]): 68.2%
inhibition at 400 µM (PC-3 cells; [10]): 55.7%
inhibition at 400 µM (PC-3 cells; [11]): 70.5%
inhibition at 400 µM (PC-3 cells; [12]): 72.7%
inhibition at 800 µM (PC-3 cells; [13]): 54.3%
inhibition at 800 µM (PC-3 cells; [14]): 71.3%
inhibition at 800 µM (PC-3 cells; [15]): 76.1%

MCLA
Growth inhibition (%) [1]: 85%

O=c1[nH][nH]c(=O)c2c(O)c(-c3ccccc3Cl)ncc12 [SEM-013, 8-hydroxy-7-(2-chlorophenyl)-2,3-dihydropyrido[4,3-d]pyridazine-1,4-dione]
inhibition at 200 µM (PC-3 cells; [7]): 23.8%
inhibition at 200 µM (PC-3 cells; [8]): 22.3%
inhibition at 200 µM (PC-3 cells; [9]): 23.1%
inhibition at 400 µM (PC-3 cells; [10]): 30.1%
inhibition at 400 µM (PC-3 cells; [11]): 29.1%
inhibition at 400 µM (PC-3 cells; [12]): 41.7%
inhibition at 800 µM (PC-3 cells; [13]): 37.1%
inhibition at 800 µM (PC-3 cells; [14]): 55.5%
inhibition at 800 µM (PC-3 cells; [15]): 64.2%

O=c1[nH][nH]c(=O)c2c(O)c(-c3ccccc3)ncc12 [SEM-009, 8-hydroxy-7-phenyl-2,3-dihydropyrido[4,3-d]pyridazine-1,4-dione]
Progression Index compared to non-treated mice ([2]; 43 mg/Kg SEM 009 by intravenous injection, FIG. 9): sharp decrease in the Progression Index
inhibition at 50 µM (PC-3 cells; Homo sapiens, PC-3, 50 uM, 24 hrs): -27.2%
inhibition at 50 µM (PC-3 cells; Homo sapiens, PC-3, 50 uM, 48 hrs): 26.6%
inhibition at 50 µM (PC-3 cells; Homo sapiens, PC-3, 50 uM, 73 hrs): 21.3%
inhibition at 100 µM (PC-3 cells; Homo sapiens, PC-3, 100 uM, 24 hrs): 81.4%
inhibition at 100 µM (PC-3 cells; Homo sapiens, PC-3, 100 uM, 48 hrs): 49.2%
inhibition at 100 µM (PC-3 cells; Homo sapiens, PC-3, 100 uM, 73 hrs): 47.8%
inhibition at 200 µM (PC-3 cells; [7]): 84.2%
inhibition at 200 µM (PC-3 cells; [8]): 80.3%
inhibition at 200 µM (PC-3 cells; Homo sapiens, PC-3, 200 uM, 73 hrs): 80.5%
inhibition at 400 µM (PC-3 cells; [10]): 90.6%
inhibition at 400 µM (PC-3 cells; [11]): 83.7%
inhibition at 400 µM (PC-3 cells; Homo sapiens, PC-3, 400 uM, 73 hrs): 85.6%
inhibition at 800 µM (PC-3 cells; [13]): 89.1%
inhibition at 800 µM (PC-3 cells; [14]): 85.7%
inhibition at 800 µM (PC-3 cells; Homo sapiens, PC-3, 800 uM, 73 hrs): 89%
IC50 (PC-3 cells; Homo sapiens, PC-3, 48 hrs): 100 µM
IC50 (PC-3 cells; Homo sapiens, PC-3, 73 hrs): 110 µM
IC50 compared with SEM-007 [3]: lower than that of SEM-007 in all of the tested cell lines
IC50 [4]: 40 to 200 µM

NNc1nc(-c2ccccc2)c(O)c2c(=O)[nH][nH]c(=O)c12 [SEM-011, 5-hydrazinyl-8-hydroxy-7-phenyl-2,3-dihydropyrido[4,3-d]pyridazine-1,4-dione]
inhibition at 50 µM ([5]; Homo sapiens, PC-3, 50 μM): 50%
inhibition at 100 µM ([5]; Homo sapiens, PC-3, 100 μM): 87%
inhibition at 200 µM ([5]; Homo sapiens, PC-3, 200 μM): 96%
inhibition at 400 µM ([5]; Homo sapiens, PC-3, 400 μM): 96%
inhibition at 800 µM ([5]; Homo sapiens, PC-3, 800 μM): 96%
PC-3 cell growth inhibition in words ([5]; concentrations of 200 μM or more): almost completely inhibited PC-3 cell growth

Nc1c(-c2ccccc2)nc(Cl)c2c(=O)[nH][nH]c(=O)c12 [SEM-007, L-012]
systemic toxicity or morbidity in tumor-bearing mice ([6]; 41.3 mg/kg once or twice per week): does not result in systemic toxicity or morbidity
effect on decrease in body weight following inoculation with tumor cells ([6]; 41.3 mg/kg once per week): partially inhibited the decrease in body weight
effect on decrease in body weight following inoculation with tumor cells ([6]; 41.3 mg/kg twice per week): completely reversed the decrease in body weight
reduction of tumor volume in comparison with the PBS-treated control ([2]; 41.3 mg/kg intraperitoneal on days 25, 28, 32, 35, at day 65, FIG. 3A): 54%
reduction of tumor volume in comparison with the PBS-treated control ([2]; 41.3 mg/kg once per week for 3 weeks, at day 73, FIGS. 4A, 4B): 45%
reduction of tumor volume in comparison with the PBS-treated control ([2]; 41.3 mg/kg twice per week for 3 weeks, at day 73, FIGS. 4A, 4B): 95%
Progression Index compared to non-treated mice ([2]; 43 mg/Kg intraperitoneal, FIG. 3B): sharp increase in the Progression Index
average tumor volume progression after administration ([2]; escalating L-012 41.3, 66.5, 100.4 mg/kg intraperitoneal on days 32, 39, 43, FIG. 2): halted tumor progression, with no increase in average tumor volume
tumor volume reduction (summary of FIGS. 2-4B) ([2]; prostate cancer cells injected into mice, dose dependent): up to 95%
% growth inhibition (PC-3 cells; 25 uM, 48 hrs): 27%
% growth inhibition (PC-3 cells; 25 uM, 73 hrs): 11%
% growth inhibition (PC-3 cells; 50 uM, 24 hrs): 46.46%
% growth inhibition (PC-3 cells; 50 uM, 48 hrs): 31%
% growth inhibition (PC-3 cells; 50 uM, 73 hrs): 20%
% growth inhibition (PC-3 cells; 100 uM, 24 hrs): 65.25%
% growth inhibition (PC-3 cells; 100 uM, 48 hrs): 38%
% growth inhibition (PC-3 cells; 100 uM, 73 hrs): 38%
% growth inhibition (PC-3 cells; 200 uM, 24 hrs): 66.84%
% growth inhibition (PC-3 cells; 200 uM, 48 hrs): 58%
% growth inhibition (PC-3 cells; 200 uM, 73 hrs): 58.0%
% growth inhibition (PC-3 cells; 400 uM, 24 hrs): 77.73%
% growth inhibition (PC-3 cells; 400 uM, 48 hrs): 70%
% growth inhibition (PC-3 cells; 400 uM, 73 hrs): 76%
% growth inhibition (PC-3 cells; 800 uM, 24 hrs): 73.80%
% growth inhibition (PC-3 cells; 800 uM, 48 hrs): 78%
% growth inhibition (PC-3 cells; 800 uM, 73 hrs): 90%
IC50 (PC-3 cells; 48 hrs): 160 µM
IC50 (PC-3 cells; 73 hrs): 140 µM
